One test addresses dopamine D2 receptor (Homo sapiens, UniProt P14416). As to the kind of experiment: D2 antagonism. The note with it: under increased doses.
Test [1] concerns reserpinized rat or mouse. As to the kind of experiment: Reserpinized rat or mouse (akinesia). It counts as in vivo. The note with it: 24 h after reserpine; for distance travelled and time active: activity meters. As for the experimental part:
A typical animal model is the reserpinized rat or mouse (e.g. […]. Neural Transm.-Park. Dis. Dement. Sect., 1994; 7: 133-142; M. Gossel et al., J. Neural Transm.-Park. Dis. Dement. Sect., 1995; 10: 27-39; N. R. Hughes et al., Mov. Disord., 1998; 13: 228-233). Reserpine is a potent depleter of monoamines and produces nearly complete akinesia in both species. Prominent 24 h after application, the distance travelled and the time active is nearly zero as measured in conventional activity meters.

The subject of a further test is 3-NP treated rats. As to the kind of experiment: Systemic 3-nitropropionic acid (3-NP) model in rats. Format: in vivo, rat. The note with it: for nocturnal akinesia (hypoactivity): after four injections of 3-NP (late Huntington's disease); for nocturnal hyperactivity: after two injections of 3-NP (early Huntington's disease). The source says:
A typical animal model is the systemic 3-nitropropionic acid (3-NP) model in rats according to C. V. Borlongan et al., Brain Res., 1995; 697: 254-257. […] After two injections of 3-NP, rats display nocturnal hyperactivity reflecting symptoms of early Huntington's disease, whereas rats treated with four injections of 3-NP display nocturnal akinesia (hypoactivity) reflecting symptoms of late Huntington's disease. Nocturnal activity is automatically measured in conventional acitivity cages by infrared beams.

In test [2] the test system is patients with Huntington's disease. As to the kind of experiment: Trial in patients with Huntington's disease. It counts as in vivo, human. The note with it: add on, 2.5 to 20 mg b.i.d., vs placebo. As to the method:
A typical trial to establish the effect of the compounds according to the invention on chorea, voluntary motor performance, and functional disability in patients with Huntington's disease encompasses 32 genetically diagnosed patients. […] The dose of blinded medication is titrated over a period of 3 weeks in a range from 2.5 to 20 mg b.i.d. Then the medication is held constant for 1 week. Assessments are performed in the week before and at the last day of the trial. Chorea is scored using the abnormal involuntary movement scale (AIMS, W. Guy, in: ECDEU assessment manual. Rockville Md.: US dept. of health, education and welfare, 1976: 534-537), the unified Huntington's disease rating scale (UHDRS, Huntington study group, 1996, Movement Disord, 11: 136-42), and judgement of video recordings. Voluntary motor performance is assessed using the UHDRS motor scale. Patients and their partners complete a questionnaire regarding functional disability.

Test [3] concerns neuroleptics sensitized monkey. As to the kind of experiment: Neuroleptics sensitized monkey. It counts as in vivo. The note with it: after haloperidol challenge. The source says: Another typical animal model is the neuroleptics sensitized monkey according to D. E. Casey, Psychopharmacology, 1996; 124: 134-140. Monkeys treated repeatedly with conventional neuroleptics are highly sensitive to a subsequent challenge dose of neuroleptic drugs. When challenged, the monkeys immediately show extrapyramidal motor side effects such as dystonia, dyskinesias, akathisia, and bradykinesia which are rated by a scoring system. The conventional neuroleptic drug haloperidol is given as a challenge.

Test [4] has as its system oxotremorine-induced tremor. As to the kind of experiment: Oxotremorine-induced tremor. The note with it: in vivo. As to the method:
A typical animal model for drug-induced tremors is the oxotremorine-induced tremor (e.g. H. Hallberg and O. Almgren, Acta Physiol. Scand., 1987; 129: 407-13; J. G. Clement and W. R. Dyck, J. Pharmacol. Meth., 1989; 22: 25-36). Oxotremorine induces tremor which is measured by a rating scale.

In test [5] the test system is rats after cardiac arrest. As to the kind of experiment: Posthypoxic myoclonus in rats. The note with it: rat, in vivo. As for the experimental part:
A typical animal model for myoclonus is myoclonus induced by an acute hypoxic episode according to D. D. Truong et al., Mov. Dsiord., 1994; 9: 201-206). In this model of posthypoxic myoclonus, rats undergo a cardiac arrest for 8 minutes and are resuscitated thereafter. Myoclonic jerks occur spontaneously but can be provoked by auditory stimulation, too, worsening over the days following cardiac arrest.

In the next test the target is dopamine D3 receptor (Homo sapiens, UniProt P35462).
Sequence of dopamine D3 receptor (P35462 whole entry, species assumed): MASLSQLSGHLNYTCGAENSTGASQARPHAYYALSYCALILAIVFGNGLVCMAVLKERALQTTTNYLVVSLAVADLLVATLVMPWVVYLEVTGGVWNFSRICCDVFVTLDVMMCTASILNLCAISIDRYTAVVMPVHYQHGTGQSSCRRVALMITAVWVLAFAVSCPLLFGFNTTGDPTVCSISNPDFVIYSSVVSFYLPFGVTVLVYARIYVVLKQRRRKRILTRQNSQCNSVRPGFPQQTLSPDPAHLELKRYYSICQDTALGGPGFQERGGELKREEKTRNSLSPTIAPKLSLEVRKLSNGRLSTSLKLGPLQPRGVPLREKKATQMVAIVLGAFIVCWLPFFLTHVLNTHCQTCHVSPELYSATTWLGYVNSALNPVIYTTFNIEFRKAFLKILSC

Sequence of dopamine D2 receptor (P14416 whole entry, species assumed): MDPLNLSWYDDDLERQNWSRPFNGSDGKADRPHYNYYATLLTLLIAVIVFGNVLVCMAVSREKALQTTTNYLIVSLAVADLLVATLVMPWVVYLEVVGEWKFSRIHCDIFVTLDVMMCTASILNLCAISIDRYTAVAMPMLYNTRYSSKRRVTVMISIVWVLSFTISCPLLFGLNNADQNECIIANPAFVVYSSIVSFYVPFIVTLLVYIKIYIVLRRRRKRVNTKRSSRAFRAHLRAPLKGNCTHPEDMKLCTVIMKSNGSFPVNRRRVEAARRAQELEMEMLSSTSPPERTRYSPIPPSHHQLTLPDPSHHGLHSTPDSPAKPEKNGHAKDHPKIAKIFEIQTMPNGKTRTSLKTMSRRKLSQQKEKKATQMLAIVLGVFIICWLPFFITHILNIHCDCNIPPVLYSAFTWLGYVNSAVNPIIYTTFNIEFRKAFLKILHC

For the molecule `Fc1ccc(-c2cncc(CNCC3CCc4ccccc4O3)c2)cc1` (racemic) [(R/S)-(−/+)-2-[5-(4-fluorophenyl)-3-pyridylmethylaminomethyl]-chromane], the D2 antagonism result on dopamine D2 receptor is reported as “exhibit a D2 antagonism”. Also, in test [1], the akinesia result was “dose-dependently reduced akinesia”; the “distance travelled and time active” value is “restored distance travelled and time active to about the level of normal animals”. In addition, in the test with 3-NP treated rats, the “nocturnal akinesia (hypoactivity)” value is on record as “reduce” and the nocturnal hyperactivity entry is recorded as “reduce”. Further, the “voluntary and involuntary motor performance (AIMS, UHDRS, video)” value in test [2] was “significant improvement”. The “extrapyramidal motor side effects (dystonia, dyskinesias, akathisia, bradykinesia; score)” value in test [3] is reported as “dose-dependently reduce the extrapyramidal motor side effects”. The “oxotremorine-induced tremors (rating scale)” value in test [4] was “inhibit oxotremorine-induced tremors”. Besides, the “number of spontaneous and auditory-evoked myoclonic jerks” value in test [5] was “dose-dependently reduce the number of spontaneous and auditory-evoked myoclonic jerks”. Further, the “affinity to the dopamine D3 receptor” value on dopamine D3 receptor is on record as “high affinity”.
For `Fc1ccc(-c2cncc(CNC[C@@H]3CCc4ccccc4O3)c2)cc1` [(S)-(+)-2-[5-(4-fluorophenyl)-3-pyridylmethylaminomethyl]-chromane], the D2 antagonism result on dopamine D2 receptor is given as “exhibit a D2 antagonism”. In addition, in test [1], the akinesia entry is “dose-dependently reduced akinesia”; the “distance travelled and time active” value was “restored distance travelled and time active to about the level of normal animals”. Further, in the test on 3-NP treated rats, the “nocturnal akinesia (hypoactivity)” value is on record as “reduce” and the nocturnal hyperactivity result is listed as “reduce”. The “voluntary and involuntary motor performance (AIMS, UHDRS, video)” value in test [2] is reported as “significant improvement”. In addition, the “extrapyramidal motor side effects (dystonia, dyskinesias, akathisia, bradykinesia; score)” value in test [3] is recorded as “dose-dependently reduce the extrapyramidal motor side effects”. Further, the “oxotremorine-induced tremors (rating scale)” value in test [4] is listed as “inhibit oxotremorine-induced tremors”. The “number of spontaneous and auditory-evoked myoclonic jerks” value in test [5] was “dose-dependently reduce the number of spontaneous and auditory-evoked myoclonic jerks”. For the same molecule, the “affinity to the dopamine D3 receptor” value on dopamine D3 receptor is listed as “high affinity”.
